Measurements as given in a melting point compilation (Tetko et al.; mined from patent text by program, amines drawn as free bases though some values may be those of a salt).

Structure (SMILES) | melting point [°C]
O=C(CBr)c1cccc(Nc2ccc3ccccc3n2)c1 | 151 to 152
CC(C)c1ccc(N(Cc2cnn(Cc3cccs3)c2)C(=O)C2CCCc3c(O)cccc32)cn1 (stereo not drawn) | 125 to 129
COCC(C)(C)c1cc(N)no1 | 96 to 99
CCOC(=O)c1nc(-c2ccc(Cl)cc2Cl)c(-c2ccc(Br)cc2)s1 | 129 to 130
O=C(OC1CCCC1=O)c1ccccc1 (stereo not drawn) | 87 to 88
COC(=O)Cc1cc(NC=O)cc(OC)n1 | 61 to 63
Cc1sc(C(=O)OCc2ccc3c(c2)OCO3)cc1NC(=O)NCc1ccccc1 | 216 to 217
CC(=O)OC1CCC2(C)C(=CCC3C2CCC2(C)C(C(C)=O)=CCC32)C1 (stereo not drawn) | 169 to 172
COC(=O)c1ccc(Cn2ncc3ccc(NC(=O)OC4CCCC4)cc32)c(OC)c1 | 150 to 151
Cc1nc(-c2ccccc2)cc(-c2cccc([N+](=O)[O-])c2)c1C(=O)NCCN1CCOCC1 | 141 to 142
CCC(=O)N1N=C(c2ccc(N)cc2)c2cc(C)ccc2CC1C (stereo not drawn) | 166 to 168
CC(C)(C)c1cc(C(=O)Nc2ccc(CC(=O)O)cc2)cc(C(C)(C)C)c1O | 253 to 254
COc1cc2c(cc1OC)S(=O)(=O)CCC(C(=O)N1CCN(C(=O)c3cc(OC)c(OC)c(OC)c3)CC1)=C2 | 226 to 229
O=C(c1oc2ccc(N3CCN(Cc4ccccc4)CC3)cc2c1Br)N(Cc1ccccc1)Cc1ccccc1 | 196 to 198
Cn1cc(-c2ccccc2)c(=S)c(-c2ccccc2)n1 | 122 to 123
COc1cc(-c2n[nH]c(N)n2)c(OC)cc1C | 248
CCCn1c(COCC)nc2c(N)nc3ccc(OC4CCN(C(=O)NC(C)C)CC4)cc3c21 | 236 to 239
COc1cc(C(=O)N2CCCC2CO)c([N+](=O)[O-])cc1OC (stereo not drawn) | 124 to 128
CCOC(=O)c1c(C)n(C(C)=O)c(=O)n1C(C)=O | 56 to 58
Cn1c(CO)nc2ccc(Cl)nc21 | 204 to 210
CN(C)Cc1cc(Oc2ccc3c(C(=O)Nc4cccc(C(F)(F)F)c4)cccc3c2)ncn1 | 180 to 181

Structure (SMILES) | melting point [°C]
O=C(NC(=O)c1cccnc1)NC1CCN(Cc2ccc3ncccc3c2)CC1 | 196 to 198
CCCCCCCCCCCCCCCCCCOc1ccccc1NC(=O)CC(=O)C(C)(C)SCC | 60 to 62
O=C(CCl)NCC1OCCO1 | 61 to 63
Cn1nnnc1SCC1c2cc(OC(=O)c3cccs3)c(OC(=O)c3cccs3)cc2CCN1C(=O)OCC(Cl)(Cl)Cl (stereo not drawn) | 139 to 146
COc1cc2c(cc1C=O)C(C)(C)CO2 | 75 to 76
O=C(c1cccs1)c1cnn2c(-c3cccc(NCCc4ccccc4)c3)ccnc12 | 118 to 120
OCCOC(c1ccccc1)c1ccccc1 | 95 to 97
C[C@]12CCC(=O)C=C1CC[C@@H]1[C@@H]2CC[C@]2(C(F)F)C(=O)CC[C@@H]12 | 183 to 184
O=Cc1nc(C(Cl)Cl)cnc1N1C(=O)c2ccccc2C1=O | 145 to 146
CC1(C)CC(C)(c2ccc(Oc3cccc([N+](=O)[O-])c3)cc2)c2cc(Oc3cccc([N+](=O)[O-])c3)ccc21 (stereo not drawn) | 90 to 92
COc1cccc(N2CCN(CCn3c(=O)[nH]c4cscc4c3=O)CC2)c1 | 184 to 186
Cc1ccc(C(=O)Nc2nc(-c3ccccc3)c(-c3nc4ccccc4c(=O)n3-c3ccc(C)cc3)s2)cc1 | 217 to 218
CNC(=S)NCCSCc1cncs1 | 86 to 88
CC(=O)Cc1cccc2c1C(=O)c1ccccc1C2=O | 198 to 200
CN=C(N)Nc1nc(CCCCNC(=NC#N)NC)cs1 | 119 to 122
O=C(CC1CC(O)CO1)NC1CCC(CCN2CCN(c3nccc4c3CCO4)CC2)CC1 (stereo not drawn) | 155
COc1cc(OC)c2c(c1)C(=O)c1cc(C)cc(OC)c1C2=O | 225
COc1cc2nc(N(C)C)nc(N)c2cc1OC | 223 to 224
O=Cc1ccc(OCCCCCCOc2ccc(C=O)cc2)cc1 | 110 to 111
COc1ccc(CN2CCc3c(nc4ccc(OC)cc4c3-c3ccc(OC)cc3)C2=O)cc1 | 132 to 134
COc1cc(Nc2nccc(-c3cccnc3)n2)ccc1-n1cnc(C)c1 | 204 to 206

Structure (SMILES) | melting point [°C]
Cc1ccc(-c2cc3cc(Cl)c(Cl)cc3o2)cc1 | 129 to 130
OCCC(CCS)c1ccncc1 (stereo not drawn) | 50 to 52
COc1cc(N2CCN(C)CC2)ccc1-c1cnn2c(N)c(-c3cccc(Cl)c3)c(C)nc12 | 174 to 178
CCc1[nH]n(C2CCCC2)c2nc(Cc3ccccc3OC)nc(=O)c1-2 | 145 to 146
CCN(CC)CCCN1CCC(O)(c2ccccc2)C(C(=O)c2ccccc2)C1 (stereo not drawn) | 76 to 78
CC(C)(CO)NS(=O)(=O)c1cccc(NC(=O)c2cnn3c(C(F)(F)F)cc(-c4ccc(C(F)(F)F)c(OCC(F)(F)F)c4)nc23)c1 | 251
CNC(=O)c1cc2c(nc(C)n2C)c2c1C[C@@H](O)[C@@H](c1ccccc1)N2 | 265 to 268
CCCN(CCC)C(=O)NC(CS)Cc1ccccc1 (single isomer, unassigned; (+)) | 68
NS(=O)(=O)c1cc2cc(CBr)ccc2s1 | 171 to 173
c1ccc(COc2cccc3cc(C4=NCCS4)[nH]c23)cc1 | 129 to 130
COc1ccc(-c2nc3cccnc3[nH]2)cc1NS(=O)(=O)c1cccs1 | 252 to 254
Cc1cc(C(C)(C)C)c(O)c(C)c1COC(=O)CCCCC(=O)OCc1c(C)cc(C(C)(C)C)c(O)c1C | 156 to 158
CN(C)CCNS(=O)(=O)c1cccc(NC(=O)c2cnn3c(C(F)(F)F)cc(-c4ccc(C(F)(F)F)cc4)nc23)c1 | 224
CCOCc1nc2c(N)nc(C)c(C)c2n1CCOCC#Cc1ccccc1 | 129 to 130
Cc1ccc(Oc2ccc(C3=CC=CN4CCS(=O)(=O)N=C34)cc2)cc1 | 248 to 249
O=S(=O)(Nc1cccnc1Nc1ccccc1)c1ccc(Oc2ccccc2)cc1 | 164 to 166
NC(=O)c1cn2c(nc1=O)CCCCC2 | 219
O=C1CCC2=C1C(Cc1ccccc1)(Cc1ccccc1)c1ccccc12 | 155
COC(=O)c1cc(C(=O)c2c(C)c(OC)c3c(OCC(=O)OC(C)(C)C)cccn23)ccc1N | 188

Further lines, results first:

melting point [°C] | Structure (SMILES)
146 to 148 | CC(C)(C)OC(=O)N1CCC(Oc2ccc(C3=NNC(=O)CC3)c(F)c2)CC1
187 to 189 | CC(=O)NNc1ccc(NC(=S)N(C)C)cc1
104 | NC/C(=C\F)COc1ccc(Cl)cc1Cl
> 250 | CCOC(=O)c1cnc2nc(C(F)(F)F)ccc2c1O
208 | O=c1c2cc(F)c(F)cc2nc(CSc2ncnc3[nH]cnc23)n1-c1ccccc1Cl
243 | O=C1CC(c2cccc(-n3ccnn3)c2)=Nc2cc(O)c(C#Cc3ccc(F)cc3)cc2N1
119 to 120 | Cc1cc(-c2ccc(S(N)(=O)=O)cc2)n(-c2ccc(F)cc2)c1Cl
81 to 82 | C#CCN(C(=O)OC(C)(C)C)c1cn(-c2cncc(F)c2)nc1C
53 to 56 | CCCCCCCc1ccc(C(=O)CCCCC(=O)O)cc1[N+](=O)[O-]
198 to 200 | N#Cc1cc(C(=O)N=C(N)N)cc(-n2cccc2)c1
84 to 85 | O=C(c1ccccc1)N1CCC2CC(O)(c3ccc(F)cc3)CCC2C1 (stereo not drawn)
66 to 75 | CCOC(=O)c1cc2ccccc2nc1C(Cl)(Cl)Cl
57 to 59 | CCN(CC)C(=O)c1ccccc1-c1ccc(F)cc1
170 to 174 | O=C(Nc1cccc(C(F)(F)F)c1)Nc1ccc(Oc2ncnc3ccn(CCOCCO)c23)cc1Cl
300 to 301 | CCOC(=O)c1cn(CC)c2nc3cc(Cl)c(F)cc3cc2c1=O
97 to 98 | CS(=O)(=O)c1ccc(-c2ccccc2Cc2cccc(F)c2)cc1
> 250 | N#Cc1cnc2sc(C(=O)O)cc2c1Nc1ccc2[nH]ccc2c1
261 to 262 | O=C(O)c1cn(C2COC2)c2c(F)c(N3CCCC3)c(F)cc2c1=O
310 | O=c1[nH]c2cc(Cl)ccc2c(O)c1-n1cccn1

melting point [°C] | Structure (SMILES)
129 | O=Cc1ccccc1OCCOc1ccccc1C=O
88 | C=CC=CN(C(=O)CCl)c1c(C)cccc1C
134 to 137 | C=Cc1ccc(Nc2c(C(=O)NOCCO)ccc(F)c2F)c(F)c1
171 to 173 | O=C1CCC(N2C(=O)c3cccc(CNC(=O)c4ccc(F)c(C(F)(F)F)c4)c3C2=O)C(=O)N1 (stereo not drawn)
150 to 153 | CCOC(Cn1cncn1)(c1ccc(F)cc1F)C(F)(F)S(=O)(=O)CCO (stereo not drawn)
267 to 269 | Cc1ccc(S(=O)(=O)NC(=O)C(Cl)Cc2cc(-n3nc(C)n(C(F)F)c3=O)c(F)cc2Cl)cc1 (stereo not drawn)
148 to 152 | O=C(Nc1c(F)cccc1Cl)c1ccc(-n2nc(C(F)(F)F)cc2C2CC2)c(F)c1
124 to 126 | CC(C=O)C(C(=O)O)c1ccc(Cl)c(Cl)c1 (stereo not drawn)
78 | CC1C(=O)c2cc([N+](=O)[O-])ccc2OC1(C)C (stereo not drawn)
128 to 130 | Cc1ccc(Oc2cccc(C#CC(C)N(O)C(N)=O)c2)cc1F (stereo not drawn)
40 to 43 | CCOC(=O)c1cc(N)ccc1O
312 | O=C1NC(NCC2CC2)=N/C1=C\c1c[nH]c2ncc(F)cc12
82 to 84 | OC(CCCl)COc1ccc(Cl)c(Cl)c1 (stereo not drawn)
87 to 90 | CC(C)(O)c1ccc(C(Cc2ccc(F)cc2)C(=O)Nc2nc3ccccc3o2)cc1 (stereo not drawn)
140 to 142 | N#CC(C#N)=CN(N=C(C#N)C#N)c1ccc(F)cc1F
138 to 140 | N#Cc1c(N2CC[C@@H](C3(N)CC3)C2)ccc2c(=O)c(C(=O)O)cn([C@@H]3C[C@@H]3F)c12
158 to 160 | COc1cc2c(c(OC)c1OC)C(C#N)N(C(=O)c1ccccc1)C=C2 (stereo not drawn)
137 to 140 | CCN(CC)C(=O)c1ccc2ccccc2c1-c1ccccc1F
